Results on 26 compounds are retold here after US11590116B2 (THERAVANCE BIOPHARMA R&D IP, LLC, priority 2019, dated 2023).

Some results are limits rather than exact numbers.

In test [1] the target is T1, recombinant human ALK5 (TGF-βR1) protein (Homo sapiens, UniProt P36897).
T1 construct: purchased Life Technologies PR9075A
T1 sequence (P36897 34-503): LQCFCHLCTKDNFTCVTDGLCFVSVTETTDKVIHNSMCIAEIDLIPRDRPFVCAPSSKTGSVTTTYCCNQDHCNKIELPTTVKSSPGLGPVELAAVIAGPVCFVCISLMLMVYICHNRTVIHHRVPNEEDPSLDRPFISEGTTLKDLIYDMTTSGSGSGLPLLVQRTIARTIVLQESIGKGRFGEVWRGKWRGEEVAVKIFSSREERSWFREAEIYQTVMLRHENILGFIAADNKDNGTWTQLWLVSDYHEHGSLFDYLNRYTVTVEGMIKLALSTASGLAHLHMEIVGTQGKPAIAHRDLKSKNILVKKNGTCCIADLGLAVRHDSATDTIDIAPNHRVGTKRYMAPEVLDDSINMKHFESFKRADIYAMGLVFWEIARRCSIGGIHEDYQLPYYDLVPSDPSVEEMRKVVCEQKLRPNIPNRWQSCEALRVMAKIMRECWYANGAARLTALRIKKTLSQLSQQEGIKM
The experiment in a line: Biochemical ALK5 (TGF-βR1) assay to measure pKi (LANCE Ultra ULight kinase assay). To be noted: apparent pKi from pIC50 by Cheng-Prusoff, read-out: ALK5 pKi (converted). A digest of the protocol: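 Compounds (10 μM to 25 pM) preincubated 60 minutes at room temperature with enzyme, then reaction run 60 minutes at 37° C with ATP added as 125 μM (5× final). Stopped with EDTA plus Eu-anti-phospho-Topoisomerase 2-alpha (Thr1342) antibody, TR-FRET read at 665 nm; pIC50 converted to pKi via Cheng-Prusoff.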

In test [2] the test system is TGF-β-stimulated SMAD3 phosphorylation in BEAS-2B cells. The experiment in a line: Cellular ALK5 potency assay, inhibition of TGF-β stimulated pSMAD3 formation in BEAS-2B cells. The test is classed as cell-based. To be noted: Homo sapiens; inhibition of TGF-β stimulated pSMAD3 formation, BEAS-2B cells; read-out: BEAS2B pIC50 (converted). In a few lines:
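Potency is reported as pIC50, derived from concentration-dependent reduction of pSMAD3 AlphaLISA signal against TGF-β-stimulated cells without compound. BEAS-2B cells received compound for 1 h before a 30-min stimulation with 10 ng/mL TGF-β.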

Turning to `Cc1cccc(-c2n[nH]cc2-c2ccc3ncc(N4C[C@@H](C)NC[C@H]4C)cc3n2)n1` (racemic) [Compound 462, 2-[3-(6-methyl-2-pyridyl)-1H-pyrazol-4-yl]-7-[rac-(2R,5R)-2,5-dimethylpiperazin-1-yl]-1,5-naphthyridine], the Ki in test [1] was 0.398 to 3.16 nM. Besides, the IC50 in test [2] was 25.1 to 158 nM.
Take `Cc1cccc(-c2n[nH]cc2-c2ccc3ncc(N4CCC[C@H](N(C)C)C4)cc3n2)n1` [Compound 492, (3S)-N,N-dimethyl-1-[6-[3-(6-methyl-2-pyridyl)-1H-pyrazol-4-yl]-1,5-naphthyridin-3-yl]piperidin-3-amine]: in test [1], the Ki was 0.0398 to 0.316 nM. In addition, the IC50 in test [2] was 25.1 to 158 nM.
`Cc1cccc(-c2[nH]cnc2-c2ccc3ncc(C(=O)O[C@@H]4CC[C@@H](N)C4)cc3c2)n1` (racemic) [Compound 766, [rac-(1R,3R)-3-aminocyclopentyl] 6-[5-(6-methyl-2-pyridyl)-1H-imidazol-4-yl]quinoline-3-carboxylate]: the Ki in test [1] was 0.0398 to 0.316 nM. Also, the IC50 in test [2] is 25.1 to 158 nM.
In the same order, the values of `Cc1cccc(-c2n[nH]cc2-c2ccc3ncc(-c4cncnc4)cc3n2)n1` [Compound 416, 2-[3-(6-methyl-2-pyridyl)-1H-pyrazol-4-yl]-7-pyrimidin-5-yl-1,5-naphthyridine] are 0.0398 to 0.316 nM and under 20 nM.
The corresponding values for `Cc1cccc(-c2[nH]cnc2-c2ccc3ncc(-c4ccc(C(=O)OC5CCNCC5)nc4)cc3c2)n1` [Compound 110, piperidin-4-yl 5-(6-(5-(6-methylpyridin-2-yl)-1H-imidazol-4-yl)quinolin-3-yl)picolinate] are 0.0398 to 0.316 nM and 25.1 to 158 nM.
The corresponding values for `Cc1cccc(-c2n[nH]cc2-c2ccc3nccc(C(=O)OCCN4CCOCC4)c3n2)n1` [Compound 827, 2-morpholinoethyl 6-[3-(6-methyl-2-pyridyl)-1H-pyrazol-4-yl]-1,5-naphthyridine-4-carboxylate] are 0.398 to 3.16 nM and 25.1 to 158 nM.
With `Cc1cccc(-c2nc3ccccn3c2-c2ccc3ncc(-c4cnc5n4CCNC5)cc3n2)n1` [Compound 524, 2-[2-(6-methyl-2-pyridyl)imidazo[1,2-a]pyridin-3-yl]-7-(5,6,7,8-tetrahydroimidazo[1,2-a]pyrazin-3-yl)-1,5-naphthyridine], in test [1], the Ki is 0.0398 to 0.316 nM. Moreover, the IC50 in test [2] was 25.1 to 158 nM.
The corresponding values for `Cc1cccc(-c2[nH]cnc2-c2ccc3ncc(NCCN(C)C4CNC4)cc3c2)n1` [Compound 593, N′-(azetidin-3-yl)-N′-methyl-N-[6-[5-(6-methyl-2-pyridyl)-1H-imidazol-4-yl]-3-quinolyl]ethane-1,2-diamine] are 0.0398 to 0.316 nM and 200 to 1260 nM.
In the same order, the values of `Cc1cccc(-c2[nH]cnc2-c2ccc3ncc(N4CCN(C)C(CC(=O)OCC5CNC5)C4)cc3c2)n1` (stereo not shown) [Compound 640, azetidin-3-ylmethyl 2-[1-methyl-4-[6-[5-(6-methyl-2-pyridyl)-1H-imidazol-4-yl]-3-quinolyl]piperazin-2-yl]acetate] are 0.0398 to 0.316 nM and 1580 to 10000 nM.
In the same order, the values of `Cc1cccc(-c2[nH]ncc2-c2ccc3ncc(C(=O)OCCN4CCNCC4)cc3c2)n1` [Compound 876, 2-(piperazin-1-yl)ethyl 6-(5-(6-methylpyridin-2-yl)-1H-pyrazol-4-yl)quinoline-3-carboxylate] are 0.0398 to 0.316 nM and under 20 nM.
Turning to `Cc1cccc(-c2n[nH]cc2-c2ccc3ncc(N4CCC(N(C)CC(C)C)CC4)cc3n2)n1` [Compound 403, N-isobutyl-N-methyl-1-[6-[3-(6-methyl-2-pyridyl)-1H-pyrazol-4-yl]-1,5-naphthyridin-3-yl]piperidin-4-amine], the Ki in test [1] is 0.0398 to 0.316 nM. Moreover, the IC50 in test [2] was 25.1 to 158 nM.
In the same order, the values of `Cc1nc(-c2n[nH]cc2-c2ccc3ncc(NCCN4CCN(C(C)C)CC4)cc3c2)ccc1F` [Compound 166, 6-[3-(5-fluoro-6-methyl-2-pyridyl)-1H-pyrazol-4-yl]-N-[2-(4-isopropylpiperazin-1-yl)ethyl]quinolin-3-amine] are 0.0398 to 0.316 nM and 25.1 to 158 nM.
In the same order, the values of `Cc1cccc(-c2n[nH]cc2-c2ccc3ncc(-c4nnc5n4CCN5)cc3n2)n1` [Compound 102, 7-(6,7-dihydro-5H-imidazo[2,1-c][1,2,4]triazol-3-yl)-2-[3-(6-methyl-2-pyridyl)-1H-pyrazol-4-yl]-1,5-naphthyridine] are 0.0398 to 0.316 nM and 1580 to 10000 nM.
In the same order, the values of `Cc1cccc(-c2n[nH]cc2-c2ccc3ncc(NCCN4CCN(C(C)C)CC4)cc3c2)n1` [Compound 428, N-[2-(4-isopropylpiperazin-1-yl)ethyl]-6-[3-(6-methyl-2-pyridyl)-1H-pyrazol-4-yl]quinolin-3-amine] are 0.0398 to 0.316 nM and 25.1 to 158 nM.
As for `COC(=O)c1coc(-c2ccnc3ccc(-c4c[nH]nc4-c4cccc(C)n4)nc23)n1` [Compound 817, methyl 2-[6-[3-(6-methyl-2-pyridyl)-1H-pyrazol-4-yl]-1,5-naphthyridin-4-yl]oxazole-4-carboxylate], in test [1], the Ki is 0.398 to 3.16 nM. For the same compound, the IC50 in test [2] is 200 to 1260 nM.
Take `Cc1cccc(-c2n[nH]cc2-c2ccc3ncc(C4CCNCC4)cc3n2)n1` [Compound 470, 2-[3-(6-methyl-2-pyridyl)-1H-pyrazol-4-yl]-7-(4-piperidyl)-1,5-naphthyridine]: in test [1], the Ki is 0.398 to 3.16 nM. In addition, the IC50 in test [2] was 25.1 to 158 nM.
In the case of `Cc1cccc(-c2n[nH]cc2-c2ccc3ncc(N4CCC(N)C4)cc3n2)n1` (stereo not shown) [Compound 626, 1-[6-[3-(6-methyl-2-pyridyl)-1H-pyrazol-4-yl]-1,5-naphthyridin-3-yl]pyrrolidin-3-amine], the Ki in test [1] was under 0.0316 nM. In test [2], the IC50 was 25.1 to 158 nM.
In the same order, the values of `Cc1cccc(-c2[nH]cnc2-c2ccc3ncc(-c4ncc(C(=O)OC5CNC5)s4)cc3c2)n1` [Compound 1018, azetidin-3-yl 2-(6-(5-(6-methylpyridin-2-yl)-1H-imidazol-4-yl)quinolin-3-yl)thiazole-5-carboxylate] are 0.0398 to 0.316 nM and 25.1 to 158 nM.
Turning to `Cc1cccc(-c2[nH]cnc2-c2ccc3ncc(C4=CCC5(CCNCC5)CC4)cc3c2)n1` [Compound 392, 9-(6-(5-(6-methylpyridin-2-yl)-1H-imidazol-4-yl)quinolin-3-yl)-3-azaspiro[5.5]undec-8-ene], the Ki in test [1] was 0.0398 to 0.316 nM. In addition, in test [2], the IC50 is 25.1 to 158 nM.
In the same order, the values of `Cc1cccc(-c2n[nH]cc2-c2ccc3ncc(NCCN4CCNCC4)cc3n2)n1` [Compound 668, 6-[3-(6-methyl-2-pyridyl)-1H-pyrazol-4-yl]-N-(2-piperazin-1-ylethyl)-1,5-naphthyridin-3-amine] are under 0.0316 nM and 200 to 1260 nM.
On to `Cc1cccc(-c2[nH]cnc2-c2ccc3ncc(-c4csc(C(=O)OCC5CNC5)n4)cc3c2)n1` [Compound 1148, azetidin-3-ylmethyl 4-[6-[5-(6-methyl-2-pyridyl)-1H-imidazol-4-yl]-3-quinolyl]thiazole-2-carboxylate], for which the Ki in test [1] was 0.0398 to 0.316 nM. Further, in test [2], the IC50 is 25.1 to 158 nM.
As to `Cc1cccc(-c2n[nH]cc2-c2ccc3ncc(N4CC5CN(C)CC54)cc3n2)n1` (stereo not shown) [Compound 304, 7-(3-methyl-3,6-diazabicyclo[3.2.0]heptan-6-yl)-2-[3-(6-methyl-2-pyridyl)-1H-pyrazol-4-yl]-1,5-naphthyridine], in test [1], the Ki was 0.0398 to 0.316 nM. Besides, the IC50 in test [2] was 25.1 to 158 nM.
The corresponding values for `Cc1cccc(-c2[nH]cnc2-c2ccc3ncc(C(=O)OC4CCNCC4)cc3c2)n1` [Compound 740, piperidin-4-yl 6-(5-(6-methylpyridin-2-yl)-1H-imidazol-4-yl)quinoline-3-carboxylate] are 0.0398 to 0.316 nM and 25.1 to 158 nM.
In the same order, the values of `Cc1cccc(-c2nc3n(c2-c2ccc4ncc(-c5cn[nH]c5)cc4c2)CCNC3)n1` [Compound 635, 6-(2-(6-methylpyridin-2-yl)-5,6,7,8-tetrahydroimidazo[1,2-a]pyrazin-3-yl)-3-(1H-pyrazol-4-yl)quinoline] are 0.0398 to 0.316 nM and 200 to 1260 nM.
The corresponding values for `Cc1nc(-c2n[nH]cc2-c2ccc3ncc(-c4cn[nH]c4)cc3c2)ccc1F` [Compound 449, 6-[3-(5-fluoro-6-methyl-2-pyridyl)-1H-pyrazol-4-yl]-3-(1H-pyrazol-4-yl)quinoline] are under 0.0316 nM and under 20 nM.
Regarding `Cc1cccc(-c2[nH]cnc2-c2ccc3ncc(-c4cc(C(=O)OC5CNC5)cs4)cc3c2)n1` [Compound 1057, azetidin-3-yl 5-[6-[5-(6-methyl-2-pyridyl)-1H-imidazol-4-yl]-3-quinolyl]thiophene-3-carboxylate], the Ki in test [1] was under 0.0316 nM. Also, the IC50 in test [2] is 25.1 to 158 nM.
